# Assay results published in PubChem BioAssay AID330 (DTP/NCI, 2004).
# “And” between values parts separate entries of the source, which are not always exact repeats. Equal entries are not always repeated. Toxic doses and inconclusive results are not listed.
# System: P388 leukemia ip, CD2F1 mice, survival T/C
# Test: NCI In Vivo Anticancer Drug Screen. Data for tumor model P388 Leukemia (intraperitoneal) in CD2F1 (CDF1) mice
# Details: endpoint: median survival time, higher = longer survival
# How it was run: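 Mice carrying the transplanted tumor received test compound or vehicle. Survival was recorded in each group, and the value is the treated-group measurement divided by that of the vehicle-treated control group.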
# [1] = dose: 50.0 mg/kg/injection, schedule: Q01DX009 (ip), vehicle: saline with Tween-80
# [2] = dose: 100.0 mg/kg/injection, schedule: Q01DX009 (ip), vehicle: saline with Tween-80
# [3] = dose: 200.0 mg/kg/injection, schedule: Q01DX009 (ip), vehicle: saline with Tween-80
# [4] = dose: 50.0 mg/kg/injection, schedule: Q01DX005 (ip), vehicle: saline with Tween-80
# [5] = dose: 100.0 mg/kg/injection, schedule: Q01DX005 (ip), vehicle: saline with Tween-80
# [6] = dose: 50.0 mg/kg/injection, schedule: Q01DX009 (ip), vehicle: saline
# [7] = dose: 100.0 mg/kg/injection, schedule: Q01DX009 (ip), vehicle: saline
# [8] = dose: 200.0 mg/kg/injection, schedule: Q04DX003 (ip), vehicle: saline
# [9] = dose: 6.25 mg/kg/injection, schedule: Q01DX009 (ip), vehicle: Klucel (hydroxypropylcellulose) (HPC)
# [10] = dose: 12.5 mg/kg/injection, schedule: Q01DX009 (ip), vehicle: Klucel (hydroxypropylcellulose) (HPC)
# [11] = dose: 200.0 mg/kg/injection, schedule: Q01DX009 (ip), vehicle: Klucel (hydroxypropylcellulose) (HPC)
# [12] = dose: 60.0 mg/kg/injection, schedule: Q01DX005 (ip), vehicle: saline with Tween-80
# [13] = dose: 50.0 mg/kg/injection, schedule: Q01DX009 (ip), vehicle: Klucel (hydroxypropylcellulose) (HPC)
# [14] = dose: 100.0 mg/kg/injection, schedule: Q01DX009 (ip), vehicle: Klucel (hydroxypropylcellulose) (HPC)
structure (smiles),measurement,setting,value
S=c1nn[nH]c2[nH]ncc12,T/C,"dose: 100.0 mg/kg/injection, schedule: Q01DX001 (ip), vehicle: saline with Tween-80",94 % of control
same,T/C,"dose: 200.0 mg/kg/injection, schedule: Q01DX001 (ip), vehicle: saline with Tween-80",102 % of control
same,T/C,"dose: 400.0 mg/kg/injection, schedule: Q01DX001 (ip), vehicle: saline with Tween-80",108 % of control
N#CC1CPCCC1N (stereo not given),T/C,[1],102 % of control
same,T/C,[2],106 % of control
same,T/C,[3],114 % of control
S=C(NCNC(=S)c1ccncc1)c1ccncc1,T/C,[4],100 % of control and 111 % of control
same,T/C,[5],108 % of control and 120 % of control
same,T/C,"dose: 200.0 mg/kg/injection, schedule: Q01DX005 (ip), vehicle: saline with Tween-80",104 % of control
CCCCB1OB(CCCC)OB(CCCC)O1,T/C,[1],92 % of control
same,T/C,[2],105 % of control
same,T/C,[3],105 % of control
CC1=CC(=O)C(=O)C2=C1OC1(C2)C(C)CCC2C3(C)CCC(O)C(C)(C)C3CCC21C (stereo not given),T/C,"dose: 25.0 mg/kg/injection, schedule: Q01DX005 (ip), vehicle: distilled water + Tween-80",95 % of control
same,T/C,"dose: 25.0 mg/kg/injection, schedule: Q01DX005 (ip), vehicle: saline with Tween-80",95 % of control
same,T/C,"dose: 50.0 mg/kg/injection, schedule: Q01DX005 (ip), vehicle: distilled water + Tween-80",115 % of control
same,T/C,[4],111 % of control
same,T/C,[5],109 % of control
CCN(CC)CCNc1ccc(C)c2sc3ccccc3c(=O)c12 (tested in a mixture with another compound),T/C,[6],160 % of control
same,T/C,[7],185 % of control
same,T/C,[8],161 % of control
same,T/C,"dose: 300.0 mg/kg/injection, schedule: Q04DX003 (ip), vehicle: saline",95 % of control
CC(C)CCCC(C)C1CCC2C3CCC4CC(=O)C(C5(O)C(=O)Nc6ccccc65)CC4(C)C3CCC12C (stereo not given),T/C,[9],95 % of control
same,T/C,[10],95 % of control
same,T/C,[11],90 % of control
CCC(O)C1(C#Cc2ccccc2)Sc2ccccc2N1C (stereo not given),T/C,[12],107 % of control
same,T/C,"dose: 120.0 mg/kg/injection, schedule: Q01DX005 (ip), vehicle: saline with Tween-80",110 % of control
same,T/C,"dose: 240.0 mg/kg/injection, schedule: Q01DX005 (ip), vehicle: saline with Tween-80",110 % of control
CCOC(c1ccc(OC)cc1)c1cc(C(C)(C)C)cc(C(C)(C)C)c1O (stereo not given),T/C,"dose: 50.0 mg/kg/injection, schedule: Q01DX005 (ip), vehicle: distilled water + alcohol",103 % of control
same,T/C,"dose: 100.0 mg/kg/injection, schedule: Q01DX005 (ip), vehicle: distilled water + alcohol",105 % of control
same,T/C,"dose: 200.0 mg/kg/injection, schedule: Q01DX005 (ip), vehicle: distilled water + alcohol",107 % of control
CCC1CC(C)C(=O)NC1=O (stereo not given),T/C,"dose: 12.5 mg/kg/injection, schedule: Q04DX003 (ip), vehicle: saline",100 % of control
same,T/C,"dose: 25.0 mg/kg/injection, schedule: Q04DX003 (ip), vehicle: saline",100 % of control
same,T/C,"dose: 50.0 mg/kg/injection, schedule: Q04DX003 (ip), vehicle: saline",109 % of control
O=[N+]([O-])c1nc(-[n+]2ccccc2)[n-]c1Br,T/C,"dose: 100.0 mg/kg/injection, schedule: Q04DX003 (ip), vehicle: saline",98 % of control
same,T/C,[8],100 % of control
same,T/C,"dose: 400.0 mg/kg/injection, schedule: Q04DX003 (ip), vehicle: saline",95 % of control
O=S1(=O)c2ccccc2N(c2ccccc2)c2nnc(-c3ccccc3)n21,T/C,"dose: 100.0 mg/kg/injection, schedule: Q04DX002 (ip), vehicle: saline with Tween-80",93 % of control
same,T/C,"dose: 200.0 mg/kg/injection, schedule: Q04DX002 (ip), vehicle: saline with Tween-80",92 % of control
same,T/C,"dose: 400.0 mg/kg/injection, schedule: Q04DX002 (ip), vehicle: saline with Tween-80",92 % of control
CCCOc1ccc(C(C)c2cc3c(cc2OC)OCO3)cc1 (stereo not given),T/C,"dose: 25.0 mg/kg/injection, schedule: Q01DX005 (ip), vehicle: Klucel (hydroxypropylcellulose) (HPC)",100 % of control
same,T/C,"dose: 50.0 mg/kg/injection, schedule: Q01DX005 (ip), vehicle: Klucel (hydroxypropylcellulose) (HPC)",103 % of control
same,T/C,"dose: 100.0 mg/kg/injection, schedule: Q01DX005 (ip), vehicle: Klucel (hydroxypropylcellulose) (HPC)",103 % of control
same,T/C,"dose: 200.0 mg/kg/injection, schedule: Q01DX005 (ip), vehicle: Klucel (hydroxypropylcellulose) (HPC)",98 % of control
COc1ccc2cc3[n+](cc2c1OC)CCc1cc2c(cc1-3)OCO2,T/C,"dose: 1.25 mg/kg/injection, schedule: Q01DX009 (ip), vehicle: water",99 % of control and 110 % of control
same,T/C,"dose: 2.5 mg/kg/injection, schedule: Q01DX009 (ip), vehicle: water",105 % of control
same,T/C,"dose: 3.13 mg/kg/injection, schedule: Q01DX009 (ip), vehicle: Klucel (hydroxypropylcellulose) (HPC)",95 % of control
same,T/C,"dose: 5.0 mg/kg/injection, schedule: Q01DX009 (ip), vehicle: water",110 % of control and 119 % of control
same,T/C,[9],107 % of control
same,T/C,"dose: 10.0 mg/kg/injection, schedule: Q01DX009 (ip), vehicle: water",110 % of control
same,T/C,[10],109 % of control
same,T/C,"dose: 20.0 mg/kg/injection, schedule: Q01DX009 (ip), vehicle: water",119 % of control
CCn1c(Cl)c(/C=N\Nc2ccccc2[N+](=O)[O-])c2ccccc21,T/C,"dose: 12.5 mg/kg/injection, schedule: Q01DX001 (ip), vehicle: Klucel (hydroxypropylcellulose) (HPC)",94 % of control
same,T/C,"dose: 25.0 mg/kg/injection, schedule: Q01DX001 (ip), vehicle: Klucel (hydroxypropylcellulose) (HPC)",88 % of control
O=C1CC2C=CC2C1 (stereo not given),T/C,"dose: 6.25 mg/kg/injection, schedule: Q01DX009 (ip), vehicle: saline",113 % of control
same,T/C,"dose: 12.5 mg/kg/injection, schedule: Q01DX009 (ip), vehicle: saline",103 % of control
same,T/C,"dose: 25.0 mg/kg/injection, schedule: Q01DX009 (ip), vehicle: saline",103 % of control
same,T/C,[3],95 % of control
O=C(O)CS(=O)(=O)CCCCCS(=O)(=O)CC(=O)O,T/C,[6],106 % of control
same,T/C,[7],104 % of control
same,T/C,"dose: 200.0 mg/kg/injection, schedule: Q01DX009 (ip), vehicle: saline",105 % of control
Cc1ccc(N2C(=O)CC3(CCCCC3)C2=O)cc1C,T/C,[13],106 % of control
same,T/C,[14],105 % of control
same,T/C,[11],97 % of control
C=CCCC/C=C/CN1CCOCC1,T/C,[6],103 % of control
same,T/C,[7],105 % of control
CCO/C=C1/N=C(c2ccc(OC)c(OC)c2)OC1=O,T/C,[12],110 % of control
CCC(C)C(=O)OC1C(=O)OC2CC3C(C)=CC(=O)C(O)C3(C)C3C4(O)OCC23C1C(C)C4O (stereo not given),T/C,"dose: 2.0 mg/kg/injection, schedule: Q01DX009 (ip), vehicle: saline",96 % of control
CC(O)Cc1c(N)n2c(nc3ccccc32)[nH]c1=O (stereo not given),T/C,"dose: 60.0 mg/kg/injection, schedule: Q01DX005 (ip), vehicle: Klucel (hydroxypropylcellulose) (HPC)",102 % of control
same,T/C,"dose: 120.0 mg/kg/injection, schedule: Q01DX005 (ip), vehicle: Klucel (hydroxypropylcellulose) (HPC)",97 % of control
same,T/C,"dose: 240.0 mg/kg/injection, schedule: Q01DX005 (ip), vehicle: Klucel (hydroxypropylcellulose) (HPC)",92 % of control
COc1ccc(C2NC(C(=O)O)CS2)cc1OC (stereo not given),T/C,"dose: 50.0 mg/kg/injection, schedule: Q01DX009 (ip), vehicle: suspension in saline",95 % of control
same,T/C,"dose: 100.0 mg/kg/injection, schedule: Q01DX009 (ip), vehicle: suspension in saline",95 % of control
same,T/C,"dose: 200.0 mg/kg/injection, schedule: Q01DX009 (ip), vehicle: suspension in saline",87 % of control and 97 % of control
Cn1c(=O)c2c(CCCC(=O)O)onc2n(C)c1=O,T/C,"dose: 25.0 mg/kg/injection, schedule: Q01DX009 (ip), vehicle: saline with Tween-80",96 % of control
same,T/C,[1],93 % of control
same,T/C,[2],90 % of control
COc1ccccc1C1OCC(C)(C)N1C (stereo not given),T/C,"dose: 18.75 mg/kg/injection, schedule: Q01DX001 (ip), vehicle: saline sonified",100 % of control
same,T/C,"dose: 37.5 mg/kg/injection, schedule: Q01DX001 (ip), vehicle: saline sonified",95 % of control
same,T/C,"dose: 75.0 mg/kg/injection, schedule: Q01DX001 (ip), vehicle: saline sonified",110 % of control
same,T/C,"dose: 75.0 mg/kg/injection, schedule: Q04DX003 (ip), vehicle: saline with Tween-80",105 % of control
same,T/C,"dose: 150.0 mg/kg/injection, schedule: Q04DX003 (ip), vehicle: saline with Tween-80",105 % of control
same,T/C,"dose: 300.0 mg/kg/injection, schedule: Q04DX003 (ip), vehicle: saline with Tween-80",100 % of control
COc1cc(/C=C2\C(=O)C3CCN2CC3)cc(OC)c1OC,T/C,[13],96 % of control
same,T/C,[14],93 % of control
same,T/C,[11],114 % of control
